Results as given in PubChem BioAssay (NCI).
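Following 48 hours of exposure in 96-well plates, responses at five concentrations were used to interpolate endpoints linearly. GI50 = concentration required for 50% inhibition of growth. TGI is the concentration that stops growth completely.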

Assays:
Assay in all cases: NCI-60 cell line screen, 48 h
NCI-H460 lung = system: NCI-H460 lung
NCI-H522 lung = system: NCI-H522 lung
NCI/ADR-RES ovarian = system: NCI/ADR-RES ovarian
OVCAR-3 ovarian = system: OVCAR-3 ovarian
OVCAR-4 ovarian = system: OVCAR-4 ovarian
OVCAR-5 ovarian = system: OVCAR-5 ovarian
OVCAR-8 ovarian = system: OVCAR-8 ovarian
PC-3 prostate = system: PC-3 prostate
RPMI-8226 leukemia = system: RPMI-8226 leukemia
RXF 393 renal = system: RXF 393 renal
SF-268 CNS = system: SF-268 CNS
SF-295 CNS = system: SF-295 CNS
SF-539 CNS = system: SF-539 CNS
SK-MEL-2 melanoma = system: SK-MEL-2 melanoma
SK-MEL-28 melanoma = system: SK-MEL-28 melanoma
SK-MEL-5 melanoma = system: SK-MEL-5 melanoma
SK-OV-3 ovarian = system: SK-OV-3 ovarian
SN12C renal = system: SN12C renal
SNB-19 CNS = system: SNB-19 CNS
SNB-75 CNS = system: SNB-75 CNS
SR leukemia = system: SR leukemia
SW-620 colon = system: SW-620 colon
T-47D breast = system: T-47D breast
TK-10 renal = system: TK-10 renal
U251 CNS = system: U251 CNS
UACC-257 melanoma = system: UACC-257 melanoma
UACC-62 melanoma = system: UACC-62 melanoma
UO-31 renal = system: UO-31 renal

Question: With `CCN(CC)CCCNCc1cc(-c2ccccc2)nc2cc(Cl)ccc12` as the molecule, how does the GI50 (NCI-H460 lung) read?
Answer: 3.41 µM

Question: What about the TGI (NCI-H460 lung) of the same molecule?
Answer: 11.2 µM

Question: And the GI50 (NCI-H522 lung)?
Answer: 4.96 µM

Question: What about the TGI (NCI-H522 lung) of the same molecule?
Answer: 17.2 µM

Question: And the GI50 (NCI/ADR-RES ovarian)?
Answer: 5 µM

Question: What about the TGI (NCI/ADR-RES ovarian) of the same molecule?
Answer: 19.7 µM

Question: And the GI50 (OVCAR-3 ovarian)?
Answer: 7.58 µM

Question: What about the TGI (OVCAR-3 ovarian) of the same molecule?
Answer: 20.5 µM

Question: And the GI50 (OVCAR-4 ovarian)?
Answer: 7.1 µM

Question: What about the TGI (OVCAR-4 ovarian) of the same molecule?
Answer: 20.5 µM

Question: And the GI50 (OVCAR-5 ovarian)?
Answer: 7.83 µM

Question: And the TGI (OVCAR-5 ovarian)?
Answer: 21.7 µM

Question: What about the GI50 (OVCAR-8 ovarian) of the same molecule?
Answer: 5.81 µM

Question: And the TGI (OVCAR-8 ovarian)?
Answer: 18.8 µM

Question: What about the GI50 (PC-3 prostate) of the same molecule?
Answer: 4.37 µM

Question: What about the TGI (PC-3 prostate) of the same molecule?
Answer: 18.4 µM

Question: And the GI50 (RPMI-8226 leukemia)?
Answer: 2460 nM

Question: What about the TGI (RPMI-8226 leukemia) of the same molecule?
Answer: 5.93 µM

Question: And the GI50 (RXF 393 renal)?
Answer: 2910 nM

Question: And the TGI (RXF 393 renal)?
Answer: 7.2 µM

Question: What about the GI50 (SF-268 CNS) of the same molecule?
Answer: 3.05 µM

Question: What about the TGI (SF-268 CNS) of the same molecule?
Answer: 12.9 µM

Question: What about the GI50 (SF-295 CNS) of the same molecule?
Answer: 1800 nM

Question: What about the TGI (SF-295 CNS) of the same molecule?
Answer: 4.37 µM

Question: What about the GI50 (SF-539 CNS) of the same molecule?
Answer: 1020 nM

Question: And the TGI (SF-539 CNS)?
Answer: 2550 nM

Question: And the GI50 (SK-MEL-2 melanoma)?
Answer: 2320 nM

Question: What about the TGI (SK-MEL-2 melanoma) of the same molecule?
Answer: 4.55 µM

Question: What about the GI50 (SK-MEL-28 melanoma) of the same molecule?
Answer: 1720 nM

Question: And the TGI (SK-MEL-28 melanoma)?
Answer: 3.11 µM

Question: And the GI50 (SK-MEL-5 melanoma)?
Answer: 1570 nM

Question: And the TGI (SK-MEL-5 melanoma)?
Answer: 3.13 µM

Question: What about the GI50 (SK-OV-3 ovarian) of the same molecule?
Answer: 11.7 µM

Question: What about the TGI (SK-OV-3 ovarian) of the same molecule?
Answer: 24.1 µM

Question: What about the GI50 (SN12C renal) of the same molecule?
Answer: 4.69 µM

Question: What about the TGI (SN12C renal) of the same molecule?
Answer: 18.2 µM

Question: What about the GI50 (SNB-19 CNS) of the same molecule?
Answer: 10.2 µM

Question: And the TGI (SNB-19 CNS)?
Answer: 25.6 µM

Question: What about the GI50 (SNB-75 CNS) of the same molecule?
Answer: 1570 nM

Question: And the TGI (SNB-75 CNS)?
Answer: 4.34 µM

Question: And the GI50 (SR leukemia)?
Answer: 716 nM

Question: What about the TGI (SR leukemia) of the same molecule?
Answer: 5.38 µM

Question: And the GI50 (SW-620 colon)?
Answer: 1970 nM

Question: And the TGI (SW-620 colon)?
Answer: 3.94 µM

Question: And the GI50 (T-47D breast)?
Answer: 1700 nM

Question: And the TGI (T-47D breast)?
Answer: 4.73 µM

Question: What about the GI50 (TK-10 renal) of the same molecule?
Answer: 3.27 µM

Question: What about the TGI (TK-10 renal) of the same molecule?
Answer: 10.2 µM

Question: What about the GI50 (U251 CNS) of the same molecule?
Answer: 2390 nM

Question: And the TGI (U251 CNS)?
Answer: 6.67 µM

Question: What about the GI50 (UACC-257 melanoma) of the same molecule?
Answer: 2120 nM

Question: And the TGI (UACC-257 melanoma)?
Answer: 5.11 µM

Question: What about the GI50 (UACC-62 melanoma) of the same molecule?
Answer: 1930 nM

Question: What about the TGI (UACC-62 melanoma) of the same molecule?
Answer: 3.59 µM

Question: What about the GI50 (UO-31 renal) of the same molecule?
Answer: 1780 nM

Question: What about the TGI (UO-31 renal) of the same molecule?
Answer: 11.5 µM
